{"source": "the supplement of paper PMC10307832", "assay_in_all_cases": "relative viability (nuclei count vs DMSO), 5 days (fraction); higher = more cells survive", "key": {"[1]": {"compound": "CCC1=CN=CN=C1N2CCN(CC2)CC3=NC4=C(N3)C=C(C=C4)C(F)(F)F + Nc1nc2[nH]cc(CCc3ccc(C(=O)N[C@@H](CCC(=O)O)C(=O)O)cc3)c2c(=O)[nH]1 [Pemetrexed] (partner 0.2 µM)", "outline": "(§1)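 Nuclei were stained with Hoechst during a one-step fixation (final 0.05% Triton X-100, 1% formaldehyde, 1 ug/ml Hoechst) carried out 5 days after dosing, then counted on 4× images. The cells, lung cancer lines in 1536-well plates, had been dosed by pin tool the day after seeding with one drug alone or a fixed anchor-drug dose plus five library-drug doses (not always all listed) in √10 steps. Relative viability is the nuclei count in treated wells divided by that in vehicle wells, and each value is the median of duplicate plates.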"}, "[2]": {"compound": "CCC1=CN=CN=C1N2CCN(CC2)CC3=NC4=C(N3)C=C(C=C4)C(F)(F)F + O=C(CCCCCCC(=O)Nc1ccccc1)NO [Vorinostat] (partner 1 µM)", "outline": "as §1"}, "[3]": {"compound": "CCn1c(-c2nonc2N)nc2cnc(Oc3cccc(NC(=O)c4ccc(OCCN5CCOCC5)cc4)c3)cc21 + O=C(CCCCCCC(=O)Nc1ccccc1)NO [Vorinostat] (partner 1 µM)", "outline": "as §1"}, "Mirin + Crizotinib": {"compound": "N=C1NC(=O)/C(=C/c2ccc(O)cc2)S1 [Mirin] + C[C@@H](Oc1cc(-c2cnn(C3CCNCC3)c2)cnc1N)c1c(Cl)ccc(F)c1Cl [Crizotinib] (partner 1 µM)", "outline": "as §1"}}}
{"cell line": "UMC-11", "values": [{"measurement": "relative viability", "setting": "[1]; first compound 0.04 µM", "result": 0.772}, {"measurement": "relative viability", "setting": "[1]; first compound 0.1265 µM", "result": 0.767}, {"measurement": "relative viability", "setting": "[1]; first compound 0.4 µM", "result": 0.83}, {"measurement": "relative viability", "setting": "[1]; first compound 1.265 µM", "result": 0.761}, {"measurement": "relative viability", "setting": "[1]; first compound 4 µM", "result": 0.724}, {"measurement": "relative viability", "setting": "[2]; first compound 0.04 µM", "result": 0.357}, {"measurement": "relative viability", "setting": "[2]; first compound 0.1265 µM", "result": 0.359}, {"measurement": "relative viability", "setting": "[2]; first compound 0.4 µM", "result": 0.376}, {"measurement": "relative viability", "setting": "[2]; first compound 1.265 µM", "result": 0.304}, {"measurement": "relative viability", "setting": "[2]; first compound 4 µM", "result": 0.316}, {"measurement": "relative viability", "setting": "[3]; first compound 0.04 µM", "result": 0.427}, {"measurement": "relative viability", "setting": "[3]; first compound 0.1265 µM", "result": 0.478}, {"measurement": "relative viability", "setting": "[3]; first compound 0.4 µM", "result": 0.437}, {"measurement": "relative viability", "setting": "[3]; first compound 1.265 µM", "result": 0.152}, {"measurement": "relative viability", "setting": "[3]; first compound 4 µM", "result": 0.158}, {"measurement": "relative viability", "setting": "Mirin + Crizotinib; first compound 0.25 µM", "result": 0.499}, {"measurement": "relative viability", "setting": "Mirin + Crizotinib; first compound 0.7906 µM", "result": 0.578}, {"measurement": "relative viability", "setting": "Mirin + Crizotinib; first compound 2.5 µM", "result": 0.529}, {"measurement": "relative viability", "setting": "Mirin + Crizotinib; first compound 7.906 µM", "result": 0.496}, {"measurement": "relative viability", "setting": "Mirin + Crizotinib; first compound 25 µM", "result": 0.236}]}
